This assay concerns the target T1, Smad3 (Rattus norvegicus, UniProt P84025).
T1 construct: endogenous in cells; host or cells: NRK49F rat kidney fibroblasts, stimulated with TGF-β1
Description: Western blot of Smad3 degradation in TGF-β1-stimulated rat kidney fibroblasts. The format is cell-based. The conditions noted are these: NRK49F cells, 48 hours, FIGS. 6(A), 6(B). On the procedure:
Rat kidney fibroblasts (NRK49F cell line) are cultured in vitro, passage 1:3 or 1:4 to six-well plates before cell fusion, and are divided into a TGF-β1 control group (TGF-β1 10 ng/ml), a PROTAC-PEG action group (TGF-β1 10 ng/ml+PROTAC-PEG of different concentrations: 1, 5, 25, 125 nM), and a PROTAC-butanedioic acid action group (TGF-β1 10 ng/ml+PROTAC-butanedioic acid of different concentrations: 1, 5, 25, 125 nM); the cells are lysed after 48 hours of culture and are used for Western blot.
A general note: A western blot detects proteins with antibodies after separation by electrophoresis.

The text below walks through data of patent US20210238224A1, “METHOD OF CONSTRUCTING PROTAC BY USING DOUBLE TARGETS” (THE FIRST AFFILIATED HOSPITAL OF SUN YAT-SEN UNIVERSITY, priority 2018, published 2021).

T1 sequence (P84025 whole entry): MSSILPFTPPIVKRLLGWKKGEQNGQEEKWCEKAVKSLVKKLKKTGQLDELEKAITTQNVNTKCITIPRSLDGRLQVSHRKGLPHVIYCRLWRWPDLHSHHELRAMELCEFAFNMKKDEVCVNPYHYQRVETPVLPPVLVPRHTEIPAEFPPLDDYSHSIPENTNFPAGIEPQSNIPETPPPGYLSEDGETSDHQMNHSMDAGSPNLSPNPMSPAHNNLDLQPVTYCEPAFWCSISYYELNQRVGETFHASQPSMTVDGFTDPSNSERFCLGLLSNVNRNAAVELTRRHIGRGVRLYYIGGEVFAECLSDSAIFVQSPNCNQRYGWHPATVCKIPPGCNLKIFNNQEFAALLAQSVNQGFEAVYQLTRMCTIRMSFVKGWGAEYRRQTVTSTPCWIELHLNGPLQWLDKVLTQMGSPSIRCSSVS

Regarding `C[C@@H](NC(=O)[C@@H]1C[C@@H](O)CN1C(=O)[C@@H](NC(=O)CCC(=O)NC(c1cccnc1)c1cc2ccccc2o1)C(C)(C)C)c1ccc(-c2cc(N)cs2)cc1` (stereo partly drawn) [PROTAC-butanedioic acid], where the note is “TGF-β1 10 ng/ml + PROTAC 1, 5, 25, 125 nM”, the “degradation of target protein Smad3 (Western blot)” value is reported as “degrades the target protein Smad3 in a concentration-dependent manner”. For the same compound, under “TGF-β1 10 ng/ml”, the “Smad3-degrading activity compared with PROTAC-PEG” value is “significantly higher than that of PROTAC-PEG” and the “effective concentration for Smad3 degradation” value was 25 nM.
